Measured values reported in patent US10683559B2, “G-protein coupled receptor (GPCR)-based biosensors and uses thereof” (Georgia Tech Research Corporation, priority 2014, dated 2020).

Key:
[1] = molecular target: T1, OR1G1 (Homo sapiens, UniProt P47890); assay: OR1G1-based yeast sensor, GFP fluorescence by flow cytometry; assay type: cell-based; conditions: for detection by the OR1G1-sensor, acid added independently: 250 μM, each acid alone (FIG. 27); for detection by the OR1G1-sensor in a mixture of fatty acids: mixture of C10, C14 and C16 acids (FIG. 27)
T1 construct: expressed in transfected cells; host or cells: S. cerevisiae W303 Δfar1, Δsst2, Δste2 (PPY140) or additionally Δste12 (PPY161), plasmid pESC-His3-PTEF1-OR1G1 (pKM269 and derivatives)
T1 sequence (P47890 with tags, fused parts or gaps limits assumed): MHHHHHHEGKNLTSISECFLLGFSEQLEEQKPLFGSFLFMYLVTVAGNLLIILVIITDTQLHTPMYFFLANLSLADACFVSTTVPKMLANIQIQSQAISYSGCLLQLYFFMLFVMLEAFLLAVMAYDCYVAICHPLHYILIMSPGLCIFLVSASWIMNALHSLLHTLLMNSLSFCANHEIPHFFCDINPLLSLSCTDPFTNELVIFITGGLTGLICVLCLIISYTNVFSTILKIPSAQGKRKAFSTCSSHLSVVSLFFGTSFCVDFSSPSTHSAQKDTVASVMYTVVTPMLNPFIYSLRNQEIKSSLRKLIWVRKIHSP
Source text: (§1) The GPCRs tested were the olfactory receptor OR1G1 (Sanz, G., Schlegel, C., Pernollet, J. C., and Briand, L. (2005) Comparison of odorant specificity of two human olfactory receptors from different phylogenetic classes and evidence for antagonism, Chemical Senses 30, 69-80) and the free fatty acid receptor GPR40 (Itoh, Y., et al. (2003) Free fatty acids regulate insulin secretion from pancreatic beta cells through GPR40, Nature 422, 173-176). First, OR1G1 and GPR40 sensing of even, medium-chain saturated fatty acids (C8-C16) using PFIG1-GFP(m) was tested. A reliable signal after fatty acid addition was not observed (FIGS. 23 and 24). Hypothesizing that the large standard deviation of PFIG1-GFP(m) contributed to the inability to detect medium-chain fatty acids, PFIG1-GFP(s) was tested as the reporter plasmid. Using PFIG1-GFP(s) enabled the OR1G1 based-sensor to detect C8, C10 and C12 fatty acids with 13-, 17-, and 13-fold increases in signal after activation, respectively (FIGS. 8-9). Using PFIG1-GFP(s) also enabled the GPR40 based-sensor to detect C8, C10 and C12 saturated fatty acids, with 14-, 25-, and 16-fold increases in signal after activation, respectively (FIGS. 10-11). It was also explored whether the OR1G1-based sensor signal could be improved by expressing the OR1G1 from a single-copy (s) rather than a multi-copy (m) plasmid.
(§2) To engineer a system in which medium-chain fatty acid sensing would trigger only GFP transcription, Ste12 was replaced in the yeast strain carrying deletions of Ste2, Sst2, and Far1 with one of two synthetic transcription factors (STFs): 1) STF1, which is composed of the Ste12 phosphorylation domain and the Gal4 activation and DNA binding domains (Pi, H. W., Chien, C. T., and Fields, S. (1997) Transcriptional activation upon pheromone stimulation mediated by a small domain of Saccharomyces cerevisiae Ste12p, Mol Cell Biol 17, 6410-6418) and 2) STF2, which is composed of the Ste12 phosphorylation domain, the synthetic B42 activation domain and the bacterial LexA DNA binding domain (Golemis, E. A., and Brent, R. (1992) Fused Protein Domains Inhibit DNA-Binding by Lexa, Mol Cell Biol 12, 3006-3014 and Peralta-Yahya, P., Carter, B. T., Lin, H. N., Tao, H. Y., and Comish, V. W. (2008) High-Throughput Selection for Cellulase Catalysts Using Chemical Complementation, J Am Chem Soc 130, 17446-17452). STF1 can activate transcription of GFP placed under control of a synthetic minimal promoter carrying five Gal4 DNA binding sites (PGal4(5×)). STF2 activates transcription of GFP placed under control of a synthetic minimal promoter carrying four lexA DNA binding sites (PLexA(4×)) (FIGS. 17 and 18).
(§3) For the Ste2/α-factor sensor, strains PPY638, PPY639, PPY640, PPY641 were grown overnight in synthetic complete media with 2% glucose and lacking leucine (SD glu (L^−)). The next day, the cells were used to inoculate a 20 mL of SD glu (L^−) to an OD600=0.06 and incubated for 18 hrs at 30° C. (150 r.p.m.). The cells were centrifuged, re-suspended in 5 mL SD glu (L^−), used to innoculate 5 ml of fresh SD glu (L^−) to OD600=0.6. α-factor (0-100 nM, Zymo Y1001) was added to the medium and incubated for 4 hrs at 30° C. (150 r.p.m.) before reading for cell fluorescence using a flow cytometer. For the OR1G1- and GPR40-based sensors using Ste12/PFIG1-GFP response unit, strains PPY643, PPY644 were grown overnight in SD glu and lacking histidine and leucine (SD glu (HL^−)). The next day, the cells were used to inoculate a 20 mL of SD glu (HL^−) to an OD600=0.06 and incubated for 18 hrs at […] (150 r.p.m.). The cells were centrifuged, re-suspended in 2 ml SD glu (HL^−) to OD600=0.6. C8, C10, C12, C14 and C16 saturated fatty acids (0-800 μM) were added to the medium and incubated for 4 hrs at 30° C. (150 r.p.m.) before reading for cell fluorescence using a flow cytometer. […]

[2] = molecular target: T2, GPR40 (Homo sapiens, UniProt O14842); assay: GPR40-based yeast sensor, GFP fluorescence by flow cytometry; assay type: cell-based
T2 construct: expressed in transfected cells; host or cells: S. cerevisiae W303 Δfar1, Δsst2, Δste2 (PPY140) or additionally Δste12 (PPY161), plasmid pESC-His3-PTEF1-GPR40 (pKM469 and derivatives)
Source text: as §1, §2, §3

[3] = Ste12/PFIG1-GFP(s), maximum at C8 800 μM, C10 250 μM, C12 500 μM
[4] = W303 Δfar1, Δsst2, Δste2, reporter PFig1-GFP(s), TF Ste12
[5] = Ste12/PFIG1-GFP(s), maximum at C8 800 μM, C10 800 μM, C12 250 μM
[6] = C8, C10, C12 fatty aldehydes and alcohols, C10 methyl- and ethyl-esters, dose response
[7] = 0 or 500 μM decanoic acid, PFig1-GFP(s), compared with no GPCR
[8] = STF1/PGal4(5×)-GFP response unit, 800 μM decanoic acid
[9] = W303 Δfar1, Δsst2, Δste2, Δste12, 500 μM decanoic acid, PFig1-GFP(s)
[10] = W303 Δfar1, Δsst2, Δste2, Δste12, reporter PGal4(5x)-GFP(m), TF STF1
[11] = W303 Δfar1, Δsst2, Δste2, Δste12, reporter PLexA(4x)-GFP(m), TF STF2

T2 sequence (O14842 whole entry): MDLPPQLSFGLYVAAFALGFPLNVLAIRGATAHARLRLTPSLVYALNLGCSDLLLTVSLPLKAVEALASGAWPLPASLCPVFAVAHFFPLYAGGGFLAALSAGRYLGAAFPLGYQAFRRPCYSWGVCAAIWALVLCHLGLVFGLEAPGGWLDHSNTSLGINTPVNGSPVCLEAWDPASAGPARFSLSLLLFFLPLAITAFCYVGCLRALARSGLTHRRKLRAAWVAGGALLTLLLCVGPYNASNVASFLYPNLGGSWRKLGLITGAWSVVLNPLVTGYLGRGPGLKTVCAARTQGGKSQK

CCCCCCCC(=O)O [C8 acid]
increase in signal after activation [1, 3]: 13 fold | Dynamic range [1, 4]: 13 | GFP max [1, 4]: 239 AU | Linear range [1, 4]: 19 to 250 µM | increase in signal after activation [2, 5]: 14 fold | Dynamic range [2, 4]: 14 | GFP max [2, 4]: 197 AU | Linear range [2, 4]: 36 to 250 µM

CCCCCCCC=O [C8 aldehyde]
increase in signal after activation (specificity) [2, 6]: unable to detect

CCCCCCCCCC(=O)O [C10 acid, decanoic acid]
GFP fluorescence in presence of GPCR [1, 7]: increase in GFP fluorescence | detection by the OR1G1-sensor, acid added independently [1]: able to detect | linear range reaching to ([1]; STF1/PGal4(5×)-GFP response unit): 500 µM | improvement in signal after activation over the Ste12/PFIG1-GFP(s) response unit [1, 8]: ~200% | increase in signal after activation [1, 8]: 30 fold | increase in signal after activation ([1]; STF2/PLexA(4×)-GFP response unit, 800 μM decanoic acid): 7 fold | linear range plateaued at ([1]; Ste12/PFIG1-GFP(s) response unit): 250 µM | increase in signal after activation [1, 3]: 17 fold | GFP fluorescence in the absence of Ste12 [1, 9]: no observable increase in GFP fluorescence | Dynamic range [1, 10]: 30 | GFP max [1, 10]: 1126 AU | Linear range [1, 10]: 110 to 500 µM | Dynamic range [1, 11]: 7 | GFP max [1, 11]: 405 AU | Linear range [1, 11]: 2 to 100 µM | Dynamic range [1, 4]: 17 | GFP max [1, 4]: 308 AU | Linear range [1, 4]: 34 to 250 µM | increase in signal after activation with chromosomal GPA1 compared with Golf and GPA1-Golf ([1]; above 250 μM decanoic acid): greatest increase in signal after activation | detection by the OR1G1-sensor in a mixture of fatty acids [1]: not able to detect | detection by the OR1G1-sensor in a mixture of fatty acids ([1]; listed as decanoic acid): inability | GFP fluorescence in presence of GPCR [2, 7]: increase in GFP fluorescence | increase in signal after activation ([2]; STF1/PGal4(5×)-GFP response unit, 500 μM decanoic acid): 28 fold | increase in GFP expression ([2]; STF2/PLexA(4×) response unit, 500 μM C10 acid (FIG. 22)): 4 fold | increase in signal after activation [2, 5]: 25 fold | GFP fluorescence in the absence of Ste12 [2, 9]: no observable increase in GFP fluorescence | Dynamic range [2, 10]: 28 | GFP max [2, 10]: 573 AU | Linear range [2, 10]: 47 to 250 µM | Dynamic range [2, 11]: 4 | GFP max [2, 11]: 501 AU | Linear range [2, 11]: 4 to 100 µM | Dynamic range [2, 4]: 25 | GFP max [2, 4]: 339 AU | Linear range [2, 4]: 36 to 100 µM | flow cytometry histogram of the biosensor strain ([2]; incubated with compound vs no compound (FIGS. 30A-30E)): shift of the population

CCCCCCCCCC=O [C10 aldehyde]
increase in signal after activation (specificity) [1, 6]: > 3 fold | increase in signal after activation ([2]; at 125 μM): 3 fold

CCCCCCCCCCCC(=O)O [C12 acid]
increase in signal after activation [1, 3]: 13 fold | Dynamic range [1, 4]: 13 | GFP max [1, 4]: 233 AU | Linear range [1, 4]: 1 to 250 µM | increase in signal after activation [2, 5]: 16 fold | Dynamic range [2, 4]: 16 | GFP max [2, 4]: 222 AU | Linear range [2, 4]: 2 to 250 µM

CCCCCCCCCCCC=O [C12 aldehyde]
increase in signal after activation ([2]; at 250 μM): 3 fold

CCCCCCCCCCCCCC(=O)O [C14 acid]
detection by the OR1G1-sensor, acid added independently [1]: able to detect | detection by the OR1G1-sensor in a mixture of fatty acids [1]: not able to detect

CCCCCCCCCCCCCCCC(=O)O [C16 acid]
detection by the OR1G1-sensor, acid added independently [1]: able to detect | detection by the OR1G1-sensor in a mixture of fatty acids [1]: not able to detect
